According to patent US20200260697A1, “METHODS OF MOUSE CLINICAL TRIAL” (CROWN BIOSCIENCE, INC. (TAICANG), priority 2016, published 2020):

Tests used:
Type in all cases: in vivo, mouse
gastric cancer PDXs = assay: LMM (Equation 8) of the cisplatin dataset with ERCC1 expression as covariate; settings: LMM Equation 8, gastric cancer PDXs
Description: The LMM can readily incorporate PDX-level genomic covariates, e.g. gene expression and mutation, for biomarker analysis. We used the same dataset to examine if ERCC1 expression is related to cisplatin response in gastric cancer by fitting the following LMM:
lnVtij=β0+β1×Dayt+β2×Dayt×ERCC1j+β3×Dayt×Treatmentij+β4×Dayt×ERCC1j×Treatmentij+u0j+u1j×Dayt+u(0i|j)+u(1i|j)×Dayt+ϵtij (8)
In this model, β2 evaluates ERCC1 expression as a prognostic biomarker since it is for both vehicle and cisplatin groups. […] The coefficient β4 examines ERCC1 expression as a predictive biomarker for cisplatin. The fitted value of β4 is 0.0136, close to that of β2. Therefore, high ERCC1 expression acts adversely to cisplatin treatment (FIG. 9E). The parameter β3 quantifies cisplatin treatment and is estimated to be −0.0879. Results from our LMM may have clinical implications.

[1] = system: 42 PDXs including 13 esophageal cancers (ES), 21 gastric cancers (GA) and 8 lung cancers(LU); assay: MCT evaluating cisplatin response on 42 PDXs, tumor volume analysed by linear mixed model (Equation 7) and AUC ratio
Procedure: In a MCT, tumor volume is measured at multiple time points for each mouse, and these tumor volumes are often correlated, as in a typical longitudinal study. As shown above, almost all growth curves under vehicle treatment can be modeled by the linear Equation 2, and under drug treatment, about 80% of the growth curves are linear or close to linear. If we introduce a quadratic term on the day (x^2), more than 90% of the growth curves can be fitted with R^2>0.7, and 97% with R^2>0.4. With such strong linearity, the linear mixed models (LMM) is a proper and powerful tool to analyze the clustered longitudinal data from MCTs (West B T et al., “Linear Mixed Models: A Practical Guide Using Statistical Software, Second Edition”, Crc Press (2014)). Specifically, a 3-level model is appropriate, in which PDX and mouse are random factors, and covariates at the PDX-level and mouse-level can be included (FIG. 9A). We used an MCT to illustrate the application of LMMs for drug response evaluation and biomarker discovery. The MCT evaluated cisplatin response (4 mg/kg, daily dosing for 3 weeks) on 42 PDXs including 13 esophageal cancers (ES), 21 gastric cancers (GA) and 8 lung cancers(LU), each PDX had 5-9 mice (FIGS. 9B-C). A general model was specified for tumor volume, in log scale, at day t for mouse i within PDX j as follows: [formula] The model used vehicle in ES as the reference. There were […], β0 for the intercept, β1 for the time slope, β2 and β3 quantify the growth rate difference of GA and LU with respect to ES, β4 measures cisplatin effect, β5 and β6 check if GA and LU respond differently to cisplatin. The model also had 5 random effects, including the residual ϵtij. In a MCT, we can view the cohort of PDXs as random samples from a PDX or patient population, therefore, they have different growth rates, which is modeled by the random effect u1j associated with the time slope. Similarly, we model the growth difference for mice within a PDX by the random effect u1i|j. Mice and PDX may also have different starting tumor volumes, which are modeled by the two random effects on intercept: u0j and u0i|j. Therefore, our LMM captures both PDX-level and mouse-level growth heterogeneity under vehicle and drug treatments. […] From the model, we can get fitted cancer specific growth curves, as well as PDX and mouse specific growth curves. On average, cisplatin reduces tumor growth rate by about 38%.

[2] = system: 42 PDXs including 13 esophageal cancers (ES), 21 gastric cancers (GA) and 8 lung cancers(LU); assay: Survival analysis (PFS, OS) of the cisplatin MCT dataset, additive frailty model and proportional hazard Cox model; settings: cisplatin versus vehicle
Description: Survival analysis are the most important endpoints of human clinical trials and can also be potentially adapted to MCT by first defining “clinical endpoint” of PFS (progress-free survival) and OS (overall survival) in preclinical setting. By the RECIST standard (Therasse P et al., J Natl Cancer Inst (2000) 92(3):205-16), we define PFS as the time until the starting tumor volume increases by 73%, and define OS as the time until the starting tumor volume triples, at which the tumor volume is usually between 300-600 mm^3, depending on initial tumor volumes. As we have shown in examples above, tumors already start exponential growth before it reaches 600 mm^3. The definitions are more of a custom and can certainly be adjusted otherwise. For example, Gao et al defined PFS as the time until tumor volume doubles (Gao H et al., Nat Med (2015) 21(11):1318-25). We can also define OS as the time until the starting tumor volume quadruples and so on.
In human oncology trails, survival time of patients is usually assumed to be independent of each other. […] Mice have correlated survival time both within a PDX and between treatments (FIGS. 10A-B). There is heterogeneity on hazard and drug response for PDXs. We used an additive frailty model to fit the survival data in MCTs (Rondeau V et al., J Statistical Software (2012) 47(4):1-28; Hanagal D D, Statistical Methods in Medical Research (2015) 24(6):936-36). In this model, the hazard function for the j-th mouse of the i-th PDX is
hij(t)=h0(t)exp(ui+(w+vi)Tij+β^TXi)
where h0(t) is the baseline hazard function. Parameter ui is the random effect (the first frailty term) associated with the i-th PDX that captures its characteristic growth, thus survival behavior, without drug treatment. Parameter vi is the random effect (the second frailty term) associated the i-th PDX that depicts its drug response deviating from the mean drug effect w of all PDXs. Tij is the treatment variable and it equals 0 for the vehicle treatment and 1 for the drug treatment; Xi is a vector for the PDX's covariates, e.g., cancer type and gene expression; β^T is the parameter vector quantifying the fixed effects of the covariates. The two random effects ui and vi assume a bivariate normal distribution with zero means, variance σ^2 and τ^2, and covariance ρστ. If the two random effects ui and vi are removed, the model reduces to the proportional hazard Cox model.
We used the cisplatin dataset in the previous example to illustrate modeling by the additive frailty model, using the R package frailtypack (Rondeau V et al., J Statistical Software (2012) 47(4):1-28). For simplicity, we used treatment as the sole covariate. By Equation 10, we observed that both frailty terms are significant larger than 0 (Wald test p-value<0.05) for PFS and OS analyses. […]

Question: What does the source list for `N.N.[Cl][Pt][Cl]` [cisplatin]?
Answer: β3 (Day × Treatment), quantifies cisplatin treatment (gastric cancer PDXs; ERCC1 expression as covariate): −0.0879; β4 (Day × ERCC1 × Treatment), ERCC1 expression as predictive biomarker for cisplatin (gastric cancer PDXs; positive value: high ERCC1 expression acts adversely to cisplatin treatment): 0.0136; response across cancer types ([1]; ES, GA and LU PDXs, p-values for β5 and β6 >0.05): comparable responses on the 3 cancer types; β4 (Day × Treatment) estimate, cisplatin effect on growth rate of ln tumor volume ([1]; LMM Equation 7, vehicle in ES as reference, REML estimate, second figure not defined, p-value 1.2E−19): −0.0282(0.0031); β5 (Day × CancerTypeGA × Treatment) estimate ([1]; LMM Equation 7, checks if GA responds differently to cisplatin than ES, REML estimate, second figure not defined, p-value 0.35): 0.0037(0.0039); β6 (Day × CancerTypeLU × Treatment) estimate ([1]; LMM Equation 7, checks if LU responds differently to cisplatin than ES, REML estimate, second figure not defined, p-value 0.84): −0.0011(0.0052); reduction of tumor growth rate, on average (LMM) ([1]; cisplatin 4 mg/kg, daily dosing for 3 weeks, 42 PDXs, 5-9 mice each, LMM Equation 7): about 38%; reduction of tumor growth rate by the AUC ratio method ([1]; cisplatin 4 mg/kg, daily dosing for 3 weeks, 42 PDXs, AUC ratio method): 36%; hazard ratio (HR) for OS ([2]; additive frailty model, OS = time until starting tumor volume triples): 0.21 (95% CI: 0.15-0.31); hazard ratio (HR) for PFS ([2]; additive frailty model, PFS = time until starting tumor volume increases by 73%): 0.40 (95% CI: 0.31-0.50); OS HR ([2]; proportional hazard Cox model): 0.36 (95% CI: 0.28-0.46); PFS HR ([2]; proportional hazard Cox model): 0.48 (95% CI: 0.40-0.58)
